Some results are limits rather than exact numbers.

One experiment addresses T1, JAK2 (Homo sapiens, UniProt O60674).
T1 construct: 5 μl of catalytic domain recombinant Kinase enzyme+Tyr peptide substrate (Invitrogen, CA); purchased Invitrogen
In words: Z'-LYTE kinase assay JAK2. It counts as biochemical. The essentials:
(§1)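 In duplicate wells, each test molecule (1% final DMSO) is incubated with recombinant kinase catalytic domain, Tyr6 peptide substrate and ATP for one hour at room temperature; a site-specific protease is then added for another hour before fluorescence reading.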

A further experiment has as its target T2, TYK2 (Homo sapiens, UniProt P29597).
T2 construct: 5 μl of catalytic domain recombinant Kinase enzyme+Tyr peptide substrate (Invitrogen, CA); purchased Invitrogen
T2 sequence (P29597 897-1176 limits assumed): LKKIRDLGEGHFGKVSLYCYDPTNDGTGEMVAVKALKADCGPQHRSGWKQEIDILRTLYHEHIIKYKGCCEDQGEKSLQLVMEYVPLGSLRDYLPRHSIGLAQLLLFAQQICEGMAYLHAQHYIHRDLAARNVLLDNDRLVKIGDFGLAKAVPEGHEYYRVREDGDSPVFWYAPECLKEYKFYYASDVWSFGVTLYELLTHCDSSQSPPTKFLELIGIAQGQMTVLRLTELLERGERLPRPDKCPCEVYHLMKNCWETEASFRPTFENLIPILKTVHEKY
In words: Z'-LYTE kinase assay TYK2. The class given is biochemical. The essentials:
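IC50 derived by 4-parameter logistic fit of percent substrate phosphorylation relative to uninhibited wells. Tyr6 peptide phosphorylated by recombinant TYK2 catalytic domain for 1 h at room temperature (1% DMSO), cleaved by development protease 1 h, FRET emission ratio 445/520 nm.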

The next experiment addresses T3, JAK1 (Homo sapiens, UniProt P23458).
T3 construct: 5 μl of catalytic domain recombinant Kinase enzyme+Tyr peptide substrate (Invitrogen, CA); purchased Invitrogen
The experiment can be described thus: Z'-LYTE kinase assay JAK1. It counts as biochemical. An outline of the steps: as §1

The target of another experiment is T4, JAK3 (Homo sapiens, UniProt P52333).
T4 construct: 5 μl of catalytic domain recombinant Kinase enzyme+Tyr peptide substrate (Invitrogen, CA); purchased Invitrogen
T4 sequence (P52333 822-1111 limits assumed): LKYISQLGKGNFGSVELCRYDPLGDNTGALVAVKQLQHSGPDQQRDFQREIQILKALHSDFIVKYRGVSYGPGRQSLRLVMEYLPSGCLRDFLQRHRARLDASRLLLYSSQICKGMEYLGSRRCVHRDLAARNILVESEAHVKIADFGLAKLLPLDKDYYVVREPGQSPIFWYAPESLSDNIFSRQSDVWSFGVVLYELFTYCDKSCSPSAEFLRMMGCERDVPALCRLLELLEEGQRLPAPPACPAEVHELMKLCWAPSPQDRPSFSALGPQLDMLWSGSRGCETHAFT
In words: Z'-LYTE kinase assay JAK3. It counts as biochemical. The essentials:
as §1

The subject of experiment [1] is JAK1/3 signaling to STAT5 in primary T cells. The experiment can be described thus: IL2 stimulation of JAK1/3 signaling to STAT5 in primary T cells (pSTAT5 Y694, FACS). The class given is cell-based. Particulars: T-cell; for inhibition at 0.2 µM: 0.2 uM compound, read-out: IL-2/STAT5 Percent Inhibition at 0.2 uM; for inhibition at 1 µM: 1.0 μM compound, read-out: IL-2/STAT5 Percent Inhibition at 1.0 μM. The protocol:
IL2 Stimulation of JAK1/3 Signaling to STAT5 in Primary T Cells:
The effect of JAK inhibitors on cytokine signaling pathways utilizing JAK3 was determined using an IL2 stimulation assay. IL2 engages a receptor complex that contains the IL2 receptor alpha and beta subunits, and the common gamma chain, to initiate activation of JAK1 and JAK3 leading to phosphorylation of STAT5 at tyrosine position 694. Lymphocytes are isolated from heparinized whole blood over a ficoll gradient, then resuspended in tissue culture media containing 10% fetal calf serum at 10×10̂6 cells/ml. 100 μl aliquots are pre-treated for 1 hour with various concentrations of compound, and then stimulated for 12 minutes with 100 U/ml IL2. The signaling reaction is terminated by fixing in 2% paraformaldehyde for 10 minutes at room temperature. Fixed cells are then washed and permeablized by suspension in 50% methanol (in PBS) at −80° C. Following overnight incubation at 4° C., cells are washed and resuspended in PBS containing 0.5% bovine serum albumin containing CD3-APC and pSTAT5 Y694-PE conjugated antibodies. After 1 hour incubation, cells are washed and the extent of STAT5 phosphorlyation in T cells is measured by FACS analysis.

The subject of experiment [2] is JAK1/3 signaling to STAT6 in Ramos B cells. In words: IL4 stimulation of JAK1/3 signaling to STAT6 in Ramos B cells (pSTAT6 Y641, FACS). The class given is cell-based. Particulars: Homo sapiens; for inhibition at 0.2 µM: 0.2 uM compound, read-out: IL-4/STAT6 in Ramos Percent Inhibition at 0.2 uM; for inhibition at 1 µM: 1.0 uM compound, read-out: IL-4/STAT6 in Ramos Percent Inhibition at 1.0 uM. An outline of the steps: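 Phospho-STAT6 Y641 was measured by FACS using a PE-labelled antibody after fixation (2% paraformaldehyde) and methanol permeabilization. Before this, Ramos cells were exposed to compound for 1 h, then to 15 ng IL4 for 15 min.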

T3 sequence (P23458 875-1153 limits assumed): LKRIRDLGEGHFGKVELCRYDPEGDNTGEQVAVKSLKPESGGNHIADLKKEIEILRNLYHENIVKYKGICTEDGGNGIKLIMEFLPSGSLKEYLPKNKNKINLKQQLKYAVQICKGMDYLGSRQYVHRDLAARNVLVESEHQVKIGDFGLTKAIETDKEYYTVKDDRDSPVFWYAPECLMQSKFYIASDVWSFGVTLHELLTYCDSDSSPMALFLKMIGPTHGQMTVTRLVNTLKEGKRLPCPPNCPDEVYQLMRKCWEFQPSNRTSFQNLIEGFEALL
T1 sequence (O60674 849-1124 limits assumed): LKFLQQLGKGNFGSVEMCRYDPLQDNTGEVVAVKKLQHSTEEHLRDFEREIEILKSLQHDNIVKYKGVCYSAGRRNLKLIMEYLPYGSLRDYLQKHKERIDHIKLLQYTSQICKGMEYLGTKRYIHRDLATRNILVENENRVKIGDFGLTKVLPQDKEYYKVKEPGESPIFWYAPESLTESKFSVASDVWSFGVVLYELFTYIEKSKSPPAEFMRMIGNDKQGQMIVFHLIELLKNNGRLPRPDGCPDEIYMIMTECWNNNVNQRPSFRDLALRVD

As to `NC(=O)c1cnc(Nc2cccc(C(=O)N3CCC3)c2)cc1NCc1ccccc1` [Example 45, 6-(3-(azetidine-1-carbonyl)phenylamino)-4-(benzylamino)nicotinamide], the IC50 at JAK2 is 100 to 1000 nM; on TYK2 it was over 1000 nM; against JAK1, 100 to 1000 nM; against JAK3 it was 10 to 100 nM. The inhibition at 0.2 µM in experiment [1] was found to be 22%. The inhibition at 1 µM in experiment [1] amounted to 25%.
Turning to `CCC(=O)N1CCC(c2ccc(Nc3cc(NCc4cccc5[nH]ccc45)c(C(N)=O)cn3)cc2)CC1` [Example 200, 4-((1H-indol-4-yl)methylamino)-6-(4-(1-propionylpiperidin-4-yl)phenylamino)nicotinamide], the 50% inhibitory concentration (IC50) against JAK2 fell in the range of 10 to 100 nM; at TYK2, 10 to 100 nM; at JAK1 it was 10 to 100 nM; on JAK3, 1 to 10 nM. In experiment [1], the inhibition at 0.2 µM is 77%. For the same molecule, the inhibition at 1 µM in experiment [1] was 103%.
Regarding `NC(=O)c1cnc(Nc2ccc(C3CCNCC3)cc2)cc1NCc1cccc(F)c1F` [Example 209, 4-(2,3-difluorobenzylamino)-6-(4-(piperidin-4-yl)phenylamino)nicotinamide], the IC50 was in the range of 10 to 100 nM against JAK2, 100 to 1000 nM against TYK2, 100 to 1000 nM at JAK1 and 1 to 10 nM at JAK3. For the same molecule, the inhibition at 0.2 µM in experiment [1] is 70%. In addition, the inhibition at 1 µM in experiment [1] turned out to be 99%.
Turning to `CC(=O)N1CCN(c2ccc(Nc3cc(NCc4cccc(Cl)c4)c(C(N)=O)cn3)cc2)CC1` [Example 257, 6-(4-(4-acetylpiperazin-1-yl)phenylamino)-4-(3-chlorobenzylamino)nicotinamide], the IC50 lay in the range of 10 to 100 nM against JAK2, 100 to 1000 nM against TYK2, 100 to 1000 nM against JAK1 and 1 to 10 nM against JAK3. Besides, the inhibition at 0.2 µM in experiment [2] turned out to be 34%. For the same molecule, the inhibition at 1 µM in experiment [2] worked out at 65%.
For the molecule `CC(=O)N1CCN(c2ccc(Nc3cc(NCc4ccccc4F)c(C(N)=O)cn3)cc2)CC1` [Example 258, 6-(4-(4-acetylpiperazin-1-yl)phenylamino)-4-(2-fluorobenzylamino)nicotinamide], the IC50 against JAK2 lay within 10 to 100 nM; on TYK2, 100 to 1000 nM; against JAK1, 100 to 1000 nM; on JAK3, 1 to 10 nM. For the same molecule, in experiment [2], the inhibition at 0.2 µM worked out at 39%. In addition, the inhibition at 1 µM in experiment [2] was determined as 63%.
Regarding `Cc1cc(Nc2cc(NCc3cccc4cc[nH]c34)c(C(N)=O)cn2)ccc1C(=O)N(C)C` [Example 283, 4-((1H-indol-7-yl)methylamino)-6-(4-(dimethylcarbamoyl)-3-methylphenylamino)nicotinamide], the IC50 was 10 to 100 nM against JAK2, over 1000 nM against TYK2, over 1000 nM on JAK1 and 1 to 10 nM against JAK3. Besides, in experiment [1], the inhibition at 0.2 µM came to 42%. For the same molecule, the inhibition at 1 µM in experiment [1] turned out to be 65%.
`COc1ccc(Nc2cc(NCc3cccc4ccsc34)c(C(N)=O)cn2)cc1` [Example 284, 4-(benzo[b]thiophen-7-ylmethylamino)-6-(4-methoxyphenylamino)nicotinamide]: the concentration for half-maximal inhibition (IC50) against JAK2 was 100 to 1000 nM; against TYK2, over 1000 nM; against JAK1, over 1000 nM; on JAK3 it was 10 to 100 nM. In addition, the inhibition at 0.2 µM in experiment [1] amounted to 39%. Also, the inhibition at 1 µM in experiment [1] is 75%.
As to `Cc1cc(Nc2cc(NCc3cccc4ccsc34)c(C(N)=O)cn2)ccc1C(=O)N(C)C` [Example 285, 4-(benzo[b]thiophen-7-ylmethylamino)-6-(4-(dimethylcarbamoyl)-3-methylphenylamino)nicotinamide], the IC50 is 10 to 100 nM against JAK2, 100 to 1000 nM against TYK2, 10 to 100 nM on JAK1 and under 1 nM on JAK3. In addition, the inhibition at 0.2 µM in experiment [1] is 58%. Besides, the inhibition at 1 µM in experiment [1] is 96%.
For `COc1ccc(Nc2cc(NCc3cccc4[nH]ccc34)c(C(N)=O)cn2)cc1` [Example 294, 4-((1H-indol-4-yl)methylamino)-6-(4-methoxyphenylamino)nicotinamide], the concentration for half-maximal inhibition (IC50) on JAK2 is 10 to 100 nM; against TYK2, 100 to 1000 nM; against JAK1, 10 to 100 nM; against JAK3 it was 1 to 10 nM. The inhibition at 0.2 µM in experiment [1] amounted to 75%. Besides, in experiment [1], the inhibition at 1 µM came out at 102%.
On to `CC(=O)N1CC(c2ccc(Nc3cc(NCc4cccc5ccsc45)c(C(N)=O)cn3)cc2)C1` [Example 333, 6-(4-(1-acetylazetidin-3-yl)phenylamino)-4-(benzo[b]thiophen-7-ylmethylamino)nicotinamide], for which the IC50 on JAK2 was in the range of 10 to 100 nM; on JAK1, 100 to 1000 nM; against JAK3, 1 to 10 nM. The inhibition at 0.2 µM in experiment [1] stood at 35%. In addition, the inhibition at 1 µM in experiment [1] stood at 84%.
Take `NC(=O)c1cnc(Nc2ccc(N3CCN(c4ccccn4)CC3)cc2)cc1NCc1ccccc1` [Example 385]: the half-maximal inhibitory concentration (IC50) against JAK2 is over 1000 nM; at JAK1, over 1000 nM; on JAK3, 10 to 100 nM. Also, the inhibition at 0.2 µM in experiment [1] came out at 37%. Moreover, the inhibition at 1 µM in experiment [1] was 62%.
For the molecule `CN(C)C(=O)c1ccc(Nc2cc(NCc3cccc(-c4ccncc4)c3)c(C(N)=O)cn2)cc1` [Example 412, 6-(4-(dimethylcarbamoyl)phenylamino)-4-(3-(pyridine-4-yl)benzylamino)nicotinamide], the IC50 against JAK2 is 100 to 1000 nM; against JAK1 it was 100 to 1000 nM; on JAK3, 1 to 10 nM. The inhibition at 0.2 µM in experiment [1] is 25%. Moreover, the inhibition at 1 µM in experiment [1] stood at 59%.
As for `NC(=O)c1cnc(Nc2cccc(OCC(=O)N3CCOCC3)c2)cc1NCc1ccccc1` [Example 430, 4-(benzylamino)-6-(3-(2-morpholino-2-oxoethoxy)phenylamino)nicotinamide], the IC50 against JAK2 was 100 to 1000 nM; at TYK2, 100 to 1000 nM; on JAK1, 100 to 1000 nM; against JAK3 it was 1 to 10 nM. In addition, the inhibition at 0.2 µM in experiment [2] turned out to be 15%. Also, the inhibition at 1 µM in experiment [2] turned out to be 36%.
Turning to `NC(=O)c1cnc(Nc2ccc(CN3CCOCC3)cc2)cc1NCc1ccccc1` [Example 431, 4-(benzylamino)-6-(4-(morpholinomethyl)phenylamino)nicotinamide], the IC50 on JAK2 was 100 to 1000 nM; against TYK2 it was over 1000 nM; on JAK1, over 1000 nM; against JAK3 it was 1 to 10 nM. Further, the inhibition at 0.2 µM in experiment [2] is 7%. The inhibition at 1 µM in experiment [2] is 24%.
Turning to `COCCOc1ccc(Nc2cc(NCc3ccccc3)c(C(N)=O)cn2)cc1` [Example 432, 4-(benzylamino)-6-(4-(2-methoxyethoxyl)phenylamino)nicotinamide], the IC50 is 100 to 1000 nM against JAK2, over 1000 nM against TYK2, over 1000 nM at JAK1 and 10 to 100 nM against JAK3. Further, the inhibition at 0.2 µM in experiment [2] came out at 16%. Moreover, the inhibition at 1 µM in experiment [2] was found to be 17%.
On to `COCCOc1cccc(Nc2cc(NCc3ccccc3)c(C(N)=O)cn2)c1` [Example 433, -(benzylamino)-6-(3-(2-methoxyethoxyl)phenylamino)nicotinamide], for which the half-inhibitory concentration (IC50) at JAK2 is 100 to 1000 nM; against TYK2, over 1000 nM; against JAK1 it was 100 to 1000 nM; on JAK3 it was 10 to 100 nM. The inhibition at 0.2 µM in experiment [2] came out at 18%. Moreover, the inhibition at 1 µM in experiment [2] stood at 27%.

The values are drawn from patent US20150353495A1 (PORTOLA PHARMACEUTICALS, INC., priority 2010, published 2015).
